{"source": "patent US9393221B2", "about": "“Methods and compounds for reducing intracellular lipid storage” (THE GENERAL HOSPITAL CORPORATION, priority 2011, dated 2016)", "note": "Counter-ions that a name gives are not always drawn.", "data": [{"tested_on": "ATGL-KO iPSCs", "test": "High throughput iPSC chemical screening, Oil Red O (ORO) lipid accumulation; as to Z-score: test concentration or dose not given here", "assay_type": "cell-based, mouse", "settings": "not given", "values": [{"compound": "Cc1c(C)c2c(c(C)c1O)CC[C@@](C)(CCC[C@H](C)CCC[C@H](C)CCCC(C)C)O2", "note": "[Tocopherol (R,S)]", "Z-score": "−1.721"}, {"compound": "CN[C@H](CC(C)C)C(=O)N[C@H]1C(=O)N[C@@H](CC(N)=O)C(=O)N[C@H]2C(=O)N[C@H]3C(=O)N[C@H](C(=O)N[C@H](C(=O)O)c4cc(O)cc(O)c4-c4cc3ccc4O)[C@H](O)c3ccc(c(Cl)c3)Oc3cc2cc(c3O[C@@H]2O[C@H](CO)[C@@H](O)[C@H](O)[C@H]2O[C@H]2C[C@](C)(N)[C@H](O)[C@H](C)O2)Oc2ccc(cc2Cl)[C@H]1O", "note": "[Vancomycin hydrochloride]", "Z-score": "−0.5906"}]}, {"tested_on": "ATGL-KO iPSCs", "test": "High throughput iPSC chemical screening, Oil Red O (ORO) lipid accumulation", "assay_type": "cell-based, mouse", "settings": "glycolytic switch compounds", "values": [{"compound": "CN(C)CCCN1c2ccccc2Sc2ccc(C(F)(F)F)cc21", "note": "[Triflupromazine hydrochloride]", "Rank in normalized ORO score from screen": 644}]}, {"tested_on": "ATGL-KO iPSCs", "test": "High throughput iPSC chemical screening, Oil Red O (ORO) lipid accumulation", "assay_type": "cell-based, mouse", "settings": "normalized ORO level vs DMSO-treated cells; compound present during 7 days differentiation, 96-well; negative = decrease in lipid accumulation", "values": [{"compound": "CCN(CC)CCNC(=O)c1cc(S(C)(=O)=O)ccc1OC", "note": "[Tiapride hydrochloride]", "Z-score": "−1.0178"}, {"compound": "CC(C(=O)O)c1ccc(C(=O)c2ccccc2)s1", "note": "(stereo not shown) [Tiaprofenic acid]", "Z-score": "−0.6271"}, {"compound": "CC1(C)S[C@@H]2[C@H](NC(=O)[C@H](C(=O)O)c3ccsc3)C(=O)N2[C@H]1C(=O)O", "note": "[Ticarcillin sodium]", "Z-score": "−0.1446"}, {"compound": "Clc1ccccc1CN1CCc2sccc2C1", "note": "[Ticlopidine hydrochloride]", "Z-score": "−1.0702"}, {"compound": "CCNC1(c2cccs2)CCCCC1=O.Cl", "note": "(stereo not shown) [Tiletamine hydrochloride]", "Z-score": 1.2858}, {"compound": "CCS(=O)(=O)CCn1c([N+](=O)[O-])cnc1C", "note": "[Tinidazole]", "Z-score": "−0.3977"}, {"compound": "NC[C@H]1O[C@H](O[C@H]2[C@H](O)[C@@H](O[C@H]3O[C@H](CO)[C@@H](O)[C@H](N)[C@H]3O)[C@H](N)C[C@@H]2N)[C@H](N)C[C@@H]1O", "note": "[Tobramycin]", "Z-score": 1.694}, {"compound": "Cc1cccc(C)c1NC(=O)C(C)N", "note": "(stereo not shown) [Tocainide hydrochloride]", "Z-score": 0.6038}, {"compound": "Cc1ccc(S(=O)(=O)NC(=O)NN2CCCCCC2)cc1", "note": "[Tolazamide]", "Z-score": 1.554}, {"compound": "c1ccc(CC2=NCCN2)cc1", "note": "[Tolazoline hydrochloride]", "Z-score": 0.3256}, {"compound": "CCCCNC(=O)NS(=O)(=O)c1ccc(C)cc1", "note": "[Tolbutamide]", "Z-score": "−0.8086"}, {"compound": "Cc1c(Cl)cccc1Nc1ccccc1C(=O)O", "note": "[Tolfenamic acid]", "Z-score": "−0.8256"}, {"compound": "Cc1ccc(C(=O)c2ccc(CC(=O)O)n2C)cc1", "note": "[Tolmetin sodium salt dihydrate]", "Z-score": "−1.0425"}, {"compound": "Cc1cccc(N(C)C(=S)Oc2ccc3ccccc3c2)c1", "note": "[Tolnaftate]", "Z-score": 0.2441}, {"compound": "C[C@H]1CC[C@]2(NC1)O[C@H]1C[C@H]3[C@@H]4CC[C@H]5C[C@@H](O)CC[C@]5(C)[C@H]4CC[C@]3(C)[C@H]1[C@@H]2C", "note": "[Tomatidine]", "Z-score": "−0.7378"}, {"compound": "C[C@H]1CC[C@]2(NC1)O[C@H]1C[C@H]3[C@@H]4CC[C@H]5C[C@@H](O[C@@H]6O[C@H](CO)[C@H](O[C@@H]7O[C@H](CO)[C@@H](O)[C@H](O[C@@H]8OC[C@@H](O)[C@H](O)[C@H]8O)[C@H]7O[C@@H]7O[C@H](CO)[C@@H](O)[C@H](O)[C@H]7O)[C@H](O)[C@H]6O)CC[C@]5(C)[C@H]4CC[C@]3(C)[C@H]1[C@@H]2C", "note": "[Tomatine, reference compound]", "Z-score": "−2.0901"}, {"compound": "Cc1cccc(Nc2ccncc2S(=O)(=O)NC(=O)NC(C)C)c1", "note": "[Torsemide]", "Z-score": 0.1541}, {"compound": "CCCCNc1c(C(=O)OCC)c(C)nc2c1cnn2CC", "note": "[Tracazolate hydrochloride]", "Z-score": "−1.6368"}, {"compound": "NC[C@H]1CC[C@H](C(=O)O)CC1", "note": "[Tranexamic acid]", "Z-score": 0.05824}, {"compound": "N[C@@H]1C[C@H]1c1ccccc1", "note": "[Tranylcypromine hydrochloride]", "Z-score": "−0.2314"}, {"compound": "O=c1n(CCCN2CCN(c3cccc(Cl)c3)CC2)nc2ccccn12", "note": "[Trazodone hydrochloride]", "Z-score": 0.03974}, {"compound": "C(#CCN1CCCC1)CN1CCCC1.Cl.Cl", "note": "[Tremorine dihydrochloride]", "Z-score": 0.3583}, {"compound": "C[C@]12C=CC(=O)C=C1CC[C@H]1[C@@H]3C[C@@H](O)[C@](O)(C(=O)CO)[C@@]3(C)C[C@H](O)[C@@]12F", "note": "[Triamcinolone]", "Z-score": "−1.1722"}, {"compound": "Nc1nc(N)c2nc(-c3ccccc3)c(N)nc2n1", "note": "[Triamterene]", "Z-score": "−1.3039"}, {"compound": "CCOC1O[C@H]([C@@H](COCc2ccccc2)OCc2ccccc2)[C@H](OCc2ccccc2)[C@H]1O", "note": "(stereo partly shown) [Tribenoside]", "Z-score": "−0.7171"}, {"compound": "COP(=O)(OC)C(O)C(Cl)(Cl)Cl", "note": "(stereo not shown) [Trichlorfon]", "Z-score": 0.2655}, {"compound": "NS(=O)(=O)c1cc2c(cc1Cl)NC(C(Cl)Cl)NS2(=O)=O", "note": "(stereo not shown) [Trichlormethiazide]", "Z-score": "−1.2081"}, {"compound": "CC[N+](CC)(CC)CCC(O)(c1ccccc1)C1CCCCC1.[Cl-]", "note": "(stereo not shown) [Tridihexethyl chloride]", "Z-score": 0.01977}, {"compound": "CN1CCN(CCCN2c3ccccc3Sc3ccc(C(F)(F)F)cc32)CC1", "note": "[Trifluoperazine dihydrochloride]", "Z-score": 0.5386}, {"compound": "CN(C)CCCN1c2ccccc2Sc2ccc(C(F)(F)F)cc21", "note": "[Triflupromazine hydrochloride]", "Z-score": 0.04449}, {"compound": "O=c1[nH]c(=O)n([C@H]2C[C@H](O)[C@@H](CO)O2)cc1C(F)(F)F", "note": "[Trifluridine]", "Z-score": 21.7513}, {"compound": "CC(=O)Oc1cc(C(F)(F)F)ccc1C(=O)O", "note": "[Triflusal]", "Z-score": "−1.2041"}, {"compound": "C[n+]1cccc(C(=O)[O-])c1", "note": "[Trigonelline]", "Z-score": "−1.518"}, {"compound": "Cl.OC(CCN1CCCCC1)(c1ccccc1)C1CCCCC1", "note": "(stereo not shown) [Trihexyphenidyl-D,L Hydrochloride]", "Z-score": 1.258}, {"compound": "COc1ccc(CN2CCNCC2)c(OC)c1OC", "note": "[Trimetazidine dihydrochloride]", "Z-score": 0.9654}, {"compound": "CN1C(=O)OC(C)(C)C1=O", "note": "[Trimethadione]", "Z-score": "−0.8958"}, {"compound": "COc1cc(C(=O)NCc2ccc(OCCN(C)C)cc2)cc(OC)c1OC", "note": "[Trimethobenzamide hydrochloride]", "Z-score": 1.06}, {"compound": "COc1cc(Cc2cnc(N)nc2N)cc(OC)c1OC", "note": "[Trimethoprim]", "Z-score": "−0.9568"}, {"compound": "COc1cc2c(c(OC)c1OC)-c1ccc(O)c(=O)cc1C(N)CC2", "note": "(stereo not shown) [Trimethylcolchicinic acid]", "Z-score": 0.4127}, {"compound": "Cc1cc2cc3c(C)cc(=O)oc3c(C)c2o1", "note": "[Trioxsalen]", "Z-score": 1.359}, {"compound": "Cc1ccc(/C(=C\\CN2CCCC2)c2ccccn2)cc1", "note": "[Triprolidine hydrochloride]", "Z-score": "−1.0644"}, {"compound": "CO[C@H]1C[C@H](O[C@H]2[C@H](C)[C@@H](O[C@@H]3O[C@H](C)C[C@H](N(C)C)[C@H]3OC(C)=O)[C@@H](C)C[C@@]3(CO3)C(=O)[C@H](C)[C@@H](OC(C)=O)[C@@H](C)[C@@H](C)OC(=O)[C@@H]2C)O[C@@H](C)[C@@H]1OC(C)=O", "note": "[Troleandomycin]", "Z-score": "−0.5429"}, {"compound": "Cc1c(C)c2c(c(C)c1O)CCC(C)(C(=O)O)O2", "note": "(stereo not shown) [Trolox]", "Z-score": "−1.1986"}, {"compound": "CN1[C@@H]2CC[C@H]1C[C@@H](O)C2", "note": "[Tropine]", "Z-score": "−0.2952"}, {"compound": "COc1cc2c3cc1Oc1cc(ccc1O)C[C@@H]1c4c(cc(OC)c(O)c4Oc4ccc(cc4)C[C@@H]3N(C)CC2)CC[N+]1(C)C.Cl.O.O.O.O.O.[Cl-]", "note": "[Tubocurarine chloride pentahydrate (+)]", "Z-score": 0.8961}, {"compound": "CO[C@@H]1C=C2CCN(C)[C@@H]2C2c3cc4c(cc3C(=O)OC21)OCO4.O=[N+]([O-])O", "note": "(stereo partly shown) [Ungerine nitrate]", "Z-score": "−1.1174"}, {"compound": "COc1ccccc1N1CCN(CCCNc2cc(=O)n(C)c(=O)n2C)CC1", "note": "[Urapidil hydrochloride]", "Z-score": "−1.2828"}, {"compound": "C[C@H](CCC(=O)O)[C@H]1CC[C@H]2[C@@H]3[C@@H](O)C[C@@H]4C[C@H](O)CC[C@]4(C)[C@H]3CC[C@]12C", "note": "[Urosiol]", "Z-score": 0.02187}, {"compound": "C[C@H]1[C@H](C)CC[C@]2(C(=O)O)CC[C@]3(C)C(=CC[C@@H]4[C@@]5(C)CC[C@H](O)C(C)(C)[C@@H]5CC[C@]43C)[C@H]12", "note": "[Ursolic acid]", "Z-score": "−0.1541"}, {"compound": "COc1ccc(CCN(C)CCCC(C#N)(c2ccc(OC)c(OC)c2)C(C)C)cc1OC.Cl", "note": "(stereo not shown) [Verapamyl hydrochloride]", "Z-score": 0.4436}, {"compound": "Nc1ncnc2c1ncn2[C@@H]1O[C@H](CO)[C@@H](O)[C@@H]1O", "note": "[Vidarabine]", "Z-score": "−0.443"}, {"compound": "C=CC(N)CCC(=O)O", "note": "(stereo not shown) [Vigabatrin]", "Z-score": "−0.7771"}, {"compound": "CC[C@]12CCCN3CCc4c(n(c5ccccc45)[C@@](O)(C(=O)OC)C1)[C@@H]32", "note": "[Vincamine]", "Z-score": "−0.4826"}, {"compound": "O=c1cc(-c2ccc(O)cc2)oc2c([C@@H]3O[C@H](CO)[C@@H](O)[C@H](O)[C@H]3O)c(O)cc(O)c12", "note": "[Vitexin]", "Z-score": "−0.0089"}, {"compound": "O=C(NCCNCC(O)COc1ccc(O)cc1)N1CCOCC1", "note": "(stereo not shown) [Xamoterol hemifumarate]", "Z-score": "−0.1402"}, {"compound": "Cc1cccc(C)c1N=C1NCCCS1", "note": "[Xylazine]", "Z-score": "−1.0585"}, {"compound": "Cc1cc(C(C)(C)C)cc(C)c1CC1=NCCN1", "note": "[Xylometazoline hydrochloride]", "Z-score": 0.7686}, {"compound": "COC(=O)[C@@H]1[C@H]2C[C@H]3c4[nH]c5ccccc5c4CCN3C[C@@H]2CC[C@@H]1O", "note": "[Yohimbine hydrochloride]", "Z-score": "−1.0356"}, {"compound": "O.O=C(O)[C@@H]1[C@H]2C[C@H]3c4[nH]c5ccccc5c4CCN3C[C@@H]2CC[C@@H]1O", "note": "[Yohimbinic acid monohydrate]", "Z-score": "−0.0239"}, {"compound": "Nc1ccn([C@H]2CC[C@@H](CO)O2)c(=O)n1", "note": "[Zalcitabine]", "Z-score": 2.323}, {"compound": "CCCOc1ccccc1-c1nc2nn[nH]c2c(=O)[nH]1", "note": "[Zaprinast]", "Z-score": "−0.4842"}, {"compound": "COc1cc(-c2ccc(=O)[nH]n2)ccc1OC(F)F", "note": "[Zardaverine]", "Z-score": "−0.6963"}, {"compound": "Cc1cn([C@H]2C[C@H](N=[N+]=[N-])[C@@H](CO)O2)c(=O)[nH]c1=O", "note": "[Zidovudine, AZT]", "Z-score": "−0.4063"}, {"compound": "CN(C)C/C=C(/c1ccc(Br)cc1)c1cccnc1", "note": "[Zimelidine dihydrochloride monohydrate]", "Z-score": "−0.7577"}, {"compound": "Cc1cc(CC(=O)O)n(C)c1C(=O)c1ccc(Cl)cc1", "note": "[Zomepirac sodium salt]", "Z-score": 0.8794}, {"compound": "OCCN1CCN(CC/C=C2/c3ccccc3Sc3ccc(Cl)cc32)CC1", "note": "[Zuclopenthixol hydrochloride]", "Z-score": "−1.8038"}, {"compound": "CC1=C2[C@H]3OC(=O)[C@@H](C)[C@@H]3CC[C@@]2(C)C=CC1=O", "note": "[alpha-Santonin]", "Z-score": "−0.8908"}, {"compound": "CC[N+]1(C)[C@@H]2CC[C@H]1CC(OC(=O)[C@@H]1CC[C@@](C(=O)OC3C[C@H]4CC[C@@H](C3)[N+]4(C)CC)(c3ccccc3)c3ccccc31)C2.[Cl-].[Cl-]", "note": "(stereo partly drawn) [beta-Belladonnine dichloroethylate]", "Z-score": "−0.7978"}, {"compound": "(S)-(−)-Atenolol", "Z-score": 0.7787}, {"compound": "(S)-propranolol hydrochloride", "Z-score": 0.368}]}]}
